Results reported in patent US9770022B2, “N-cycloalkyl-N-[(bicyclylphenyl)methylene]-(thio)carboxamide derivatives” (BAYER CROPSCIENCE AG, priority 2013, dated 2017).
Like-named read-outs stand apart in the source and are kept apart here.

Tests used:
Alternaria brassicae = experiment: In vivo preventive test on Alternaria brassicae (leaf spot on radish); conditions: 500 ppm of active ingredient, spray 24 hours before inoculation, evaluated 6 days after inoculation
Experimental: (§1) Solvent: 5% by volume of Dimethyl sulfoxide
(§2) • 10% by volume of Acetone Emulsifier: 1 μl of Tween® 80 per mg of active ingredient
(§3) The active ingredients are made soluble and homogenized in a mixture of Dimethyl sulfoxide/Acetone/Tween® 80 and then diluted in water to the desired concentration.
The young plants of radish are treated by spraying the active ingredient prepared as described above. Control plants are treated only with an aqueous solution of Acetone/Dimethyl sulfoxide/Tween® 80.
After 24 hours, the plants are contaminated by spraying the leaves with an aqueous suspension of Alternaria brassicae spores. The contaminated radish plants are incubated for 6 days at 20° C. and at 100% relative humidity.
The test is evaluated 6 days after the inoculation. 0% means an efficacy which corresponds to that of the control plants while an efficacy of 100% means that no disease is observed.

Septoria tritici = experiment: In vivo preventive test on Septoria tritici (wheat); conditions: 500 ppm of active ingredient, evaluated 24 days after inoculation
Experimental: as §1, §2, §3
(§4) The young plants of wheat are treated by spraying the active ingredient prepared as described above. Control plants are treated only with an aqueous solution of Acetone/Dimethyl sulfoxide/Tween® 80.
After 24 hours, the plants are contaminated by spraying the leaves with an aqueous suspension of Septoria tritici spores. The contaminated wheat plants are incubated for 72 hours at 18° C. and at 100% relative humidity and then for 21 days at 20° C. and at 90% relative humidity.
The test is evaluated 24 days after the inoculation. 0% means an efficacy which corresponds to that of the control plants while an efficacy of 100% means that no disease is observed.

Sphaerotheca fuliginea = experiment: In vivo preventive test on Sphaerotheca fuliginea (powdery mildew on cucurbits); conditions: gherkin, evaluated 15 days after inoculation
Experimental: as §1, §2, §3
The young plants of gherkin are treated by spraying the active ingredient prepared as described above. Control plants are treated only with an aqueous solution of Acetone/Dimethyl sulfoxide/Tween® 80.
After 24 hours, the plants are contaminated by spraying the leaves with an aqueous suspension of Sphaerotheca fuliginea spores. The contaminated gherkin plants are incubated for 72 hours at 18° C. and at 100% relative humidity and then for 12 days at 20° C. and at 70-80% relative humidity.
The test is evaluated 15 days after the inoculation. 0% means an efficacy which corresponds to that of the control plants while an efficacy of 100% means that no disease is observed.

Pyrenophora teres = experiment: In vivo preventive test on Pyrenophora teres (barley); conditions: 500 ppm of active ingredient, evaluated 14 days after inoculation
Experimental: as §1, §2, §3
The young plants of barley are treated by spraying the active ingredient prepared as described above. Control plants are treated only with an aqueous solution of Acetone/Dimethyl sulfoxide/Tween® 80.
After 24 hours, the plants are contaminated by spraying the leaves with an aqueous suspension of Pyrenophora teres spores. The contaminated barley plants are incubated for 48 hours at 20° C. and at 100% relative humidity and then for 12 days at 20° C. and at 70-80% relative humidity.
The test is evaluated 14 days after the inoculation. 0% means an efficacy which corresponds to that of the control plants while an efficacy of 100% means that no disease is observed.

[1] = log P by HPLC on reversed-phase column (C 18), EEC Directive 79/831 Annex V.A8; assay type: physicochemical; conditions: for chromatographic logP: reversed-phase HPLC column (C 18)
Experimental: In table 1, the log P values were determined in accordance with EEC Directive 79/831 Annex V.A8 by HPLC (High Performance Liquid Chromatography) on a reversed-phase column (C 18), using the method described below:
Temperature: 40° C.; Mobile phases: 0.1% aqueous formic acid and acetonitrile; linear gradient from 10% acetonitrile to 90% acetonitrile.
Calibration was carried out using unbranched alkan-2-ones (comprising 3 to 16 carbon atoms) with known log P values (determination of the log P values by the retention times using linear interpolation between two successive alkanones). lambda-max-values were determined using UV-spectra from 200 nm to 400 nm and the peak values of the chromatographic signals.

Uromyces appendiculatus = experiment: In vivo preventive test on Uromyces appendiculatus (bean rust); conditions: for pest or weed control at 500 ppm: Uromyces appendiculatus, 264 h
Experimental: as §1, §2, §3
The young plants of bean are treated by spraying the active ingredient prepared as described above. Control plants are treated only with an aqueous solution of Acetone/Dimethyl sulfoxide/Tween® 80.
After 24 hours, the plants are contaminated by spraying the leaves with an aqueous suspension of Uromyces appendiculatus spores. The contaminated bean plants are incubated for 24 hours at 20° C. and at 100% relative humidity and then for 10 days at 20° C. and at 70-80% relative humidity.
(§5) The test is evaluated 11 days after the inoculation. 0% means an efficacy which corresponds to that of the control plants while an efficacy of 100% means that no disease is observed.

Puccinia recondita = experiment: In vivo preventive test on Puccinia recondita (brown rust on wheat); conditions: evaluated 11 days after inoculation
Experimental: as §1, §2, §3, §4
After 24 hours, the plants are contaminated by spraying the leaves with an aqueous suspension of Puccinia recondita spores. The contaminated wheat plants are incubated for 24 hours at 20° C. and at 100% relative humidity and then for 10 days at 20° C. and at 70-80% relative humidity.
as §5

[2] = Table 1, HPLC C 18, 40° C., 0.1% aqueous formic acid and acetonitrile, gradient 10% to 90% acetonitrile, two values = mixture of endo and exo isomers
[3] = 500 ppm of active ingredient, evaluated 11 days after inoculation
[4] = 500 ppm, evaluated 11 days after inoculation, Table F2 comparison, read-out: Efficacy

SMILES	Efficacy (Alternaria brassicae) [%]	Efficacy (Septoria tritici) [%]	Efficacy (Sphaerotheca fuliginea; 500 ppm of active ingredient) [%]	Efficacy (Pyrenophora teres) [%]	logP [1, 2]	Efficacy (Puccinia recondita; 500 ppm of active ingredient) [%]	also measured
Cn1nc(C(F)F)c(C(=O)N(Cc2cc(C34CCCCC3C4(Cl)Cl)ccc2Cl)C2CC2)c1F (stereo not shown) [I.12]	97	94	100	75	5.25		
Cn1nc(C(F)F)c(C(=O)N(Cc2ccccc2C2CC3CCC2C3)C2CC2)c1F (mixture of isomers) [I.03]	96	100	100	100		98	Efficacy (Uromyces appendiculatus; [3]): 100%
Cn1nc(C(F)F)c(C(=O)N(Cc2cc(CC3C4CCC(C4)C3(C)C)ccc2C(C)(C)C)C2CC2)c1F (stereo not shown) [I.23]					7.09		Efficacy (Sphaerotheca fuliginea; at 100 ppm (note 1)): 100^(1) %; Efficacy (Puccinia recondita; at 100 ppm (note 1)): 79^(1) %
O=C(c1ccsc1Br)N(Cc1ccccc1C1CC2CCC1C2)C1CC1 (mixture of isomers) [I.04]		79					
Cn1cc(C(=O)N(Cc2ccccc2C2CC3CCC2C3)C2CC2)c(C(F)F)n1 (mixture of isomers) [I.05]	80	86	95	71		94	Efficacy (Uromyces appendiculatus; [3]): 91%
Cn1nc(C(F)F)c(C(=O)N(Cc2cc(Cl)ccc2C23CCCC2C3(Cl)Cl)C2CC2)c1F (stereo not shown) [I.08]		94	100	81	4.85	88	Efficacy (Uromyces appendiculatus; [3]): 99%
Cn1nc(C(F)F)c(C(=O)N(Cc2ccccc2C2CC3CCC2C3)C2CC2)c1Cl (mixture of isomers) [I.02]		86	98			88	
Cn1nc(C(F)F)c(C(=O)N(Cc2cc(C34CCCC3C4(Cl)Cl)ccc2Cl)C2CC2)c1F (stereo not shown) [I.09]	75	100	100	88	4.90		Efficacy (Uromyces appendiculatus; [3]): 84%
Cn1nc(C(F)F)c(C(=O)N(Cc2ccccc2C23CCCCC2C3(Cl)Cl)C2CC2)c1F (stereo not shown) [I.10]		88	100		4.82	88	
Cn1nc(C(F)F)c(C(=S)N(Cc2ccccc2C2CC3CCC2C3)C2CC2)c1Cl (stereo not shown) [I.06]		88	98	75	5.45	88	Efficacy (Uromyces appendiculatus; [3]): 99%
Cn1nc(C(F)F)c(C(=O)N(Cc2cc(Cl)ccc2C23CCCCCC2C3(Cl)Cl)C2CC2)c1F (stereo not shown) [I.14]	83	94	100		5.54	75	
Cn1nc(C(F)F)c(C(=S)N(Cc2ccccc2C2CC3CCC2C3)C2CC2)c1F (mixture of isomers) [I.18]	97	100	100	94		88	Efficacy (Uromyces appendiculatus; [3]): 100%
Cn1nc(C(F)F)c(C(=O)N(Cc2ccccc2C2CCCCC2)C2CC2)c1F [CMP5, N-(2-cyclohexylbenzyl)-N-cyclopropyl-3-(difluoromethyl)-5-fluoro-1-methyl-1H-pyrazole-4-carboxamide, reference compound]							pest or weed control at 500 ppm (Uromyces appendiculatus; [4]): < 40%
Cc1nn(C)c(F)c1C(=O)N(Cc1ccccc1C1CCCC1)C1CC1 [CMP4, N-(2-cyclopentylbenzyl)-N-cyclopropyl-5-fluoro-1,3-dimethyl-1H-pyrazole-4-carboxamide, reference compound]							pest or weed control at 500 ppm (Uromyces appendiculatus; [4]): < 40%
Cn1nc(C(F)F)c(C(=O)N(Cc2ccccc2C23CCCC2C3(Cl)Cl)C2CC2)c1F (stereo not shown) [I.07, N-cyclopropyl-N-[2-(6,6-dichlorobicyclo[3.1.0]hex-1-yl)benzyl]-3-(difluoromethyl)-5-fluoro-1-methyl-1H-pyrazole-4-carboxamide]		94	100	81		94	pest or weed control at 500 ppm (Uromyces appendiculatus; 500 ppm of active ingredient, evaluated 11 days after inoculation, read-out: Efficacy): 100%; chromatographic logP [1, 2]: 4.46
Cn1cc(C(=O)N(Cc2ccccc2C2CCCCC2)C2CC2)c(C(F)F)n1 [CMP6, N-(2-cyclohexylbenzyl)-N-cyclopropyl-3-(difluoromethyl)-1-methyl-1H-pyrazole-4-carboxamide, reference compound]							pest or weed control at 500 ppm (Uromyces appendiculatus; [4]): < 40%
CC(c1ccccc1C1CCCC1)N(C(=O)c1c(C(F)F)nn(C)c1Cl)C1CC1 (stereo not shown) [CMP7, 5-chloro-N-[1-(2-cyclopentylphenyl)ethyl]-N-cyclopropyl-3-(difluoromethyl)-1-methyl-1H-pyrazole-4-carboxamide, reference compound]							pest or weed control at 500 ppm (Uromyces appendiculatus; [4]): < 40%
c1ccc(C2CC3CCC2C3)c(CNC2CC2)c1 (stereo not shown) [IIa.1, N-[2-(bicyclo[2.2.1]hept-2-yl)benzyl]cyclopropanamine]							chromatographic logP ([1]; Table 2 (amines IIa), same HPLC method, broad signal): 2.01
Cc1nn(C)c(F)c1C(=O)N(Cc1ccccc1C1CC2CCC1C2)C1CC1 (stereo not shown) [I.01, N-[2-(bicyclo[2.2.1]hept-2-yl)benzyl]-N-cyclopropyl-5-fluoro-1,3-dimethyl-1H-pyrazole-4-carboxamide]		100	100	100	4.24	100	pest or weed control at 500 ppm (Uromyces appendiculatus; read-out: Efficacy, 500 ppm of active ingredient, evaluated 11 days after inoculation): 100%; pest or weed control at 500 ppm (Uromyces appendiculatus; read-out: Efficacy, 500 ppm, evaluated 11 days after inoculation, Table F2 comparison): ≥ 80%; Efficacy (Sphaerotheca fuliginea; 100 ppm, Table E2 comparison): total protection; chromatographic logP [1, 2]: 4.16
Cn1cc(C(=S)N(Cc2ccccc2C2CC3CCC2C3)C2CC2)c(C(F)F)n1 (mixture of isomers) [I.19]	75	98	95			88	
Cn1nc(C(F)F)c(C(=O)N(Cc2cc(Cl)ccc2C23CCCCC2C3(Cl)Cl)C2CC2)c1F (stereo not shown) [I.11]	75	75	100		5.22	75	
Cn1cc(C(=O)N(Cc2ccccc2C2=CC3CCC2(C)C3(C)C)C2CC2)c(C(F)(F)F)c1 (stereo not shown) [I.22]					5.72		
CC(c1ccccc1C1=CCCCC1)N(C(=O)c1c(C(F)F)nn(C)c1F)C1CC1 (stereo not shown) [CMP8, N-{1-[2-(cyclohex-1-en-1-yl)phenyl]ethyl}-N-cyclopropyl-3-(difluoromethyl)-5-fluoro-1-methyl-1H-pyrazole-4-carboxamide, reference compound]							pest or weed control at 500 ppm (Uromyces appendiculatus; 500 ppm, evaluated 11 days after inoculation, Table F3 comparison, read-out: Efficacy): < 55%
